Consider four substances from paper PMC6208443 (Nature Communications, 2018).

Holding throughout (assay type): binding, Arabidopsis thaliana
Settings in all cases: result in words

Experiment [1] deals with CMT3. In words: Peptide affinity purification and mass spectrometry, CMT3. How it is done:
(§1) To extract the nuclear proteins for peptide affinity purification, 1 g of wild-type Arabidopsis flowers was harvested and ground in liquid nitrogen. […] The filtrates were centrifuged at 2000 g for 15 min at 4 °C to precipitate the nuclei. Nuclear pellets were washed two times with 1 ml of Honda buffer and then were resuspended in 600 μl of Nuclei Lysis Buffer (50 mM Tris-HCl pH 8.0, 150 mM NaCl, 1% NP40, 0.5 mM DTT, 1 mM PMSF, Roche protease inhibitor cocktail). After sonication, nuclei extracts were centrifuged at 20,000 g for 10 min at 4 °C. The supernatant was incubated with 2 μg of biotinylated histone peptides and Streptavidin Magnetic Beads (Thermo Scientific, 88816) for 3 h with rotation at 4 °C. […] After incubation, beads were washed three times with wash buffer 1 (320 mM NaCl, 50 mM Tris-HCl pH 8.0, 0.5% NP40), and three times with wash buffer 2 (150 mM NaCl, 50 mM Tris-HCl pH 8.0).
(§2) For LC-MS/MS analysis, IP beads with captured proteins were lysed in 12 mM sodium deoxycholate (SDC)-sodium lauroyl sarcosinate (SLS): 100 mM Tris-HCl (pH 8.5), 12 mM SDC, and 12 mM SLS. Proteins were reduced and alkylated with 10 mM tris-(2-carboxyethyl) phosphine and 40 mM chloroacetamide at 95 °C for 5 min. The supernatant containing reduced and alkylated proteins was transferred into a new Eppendorf tube and diluted fivefold with 50 mM triethylammonium hydrogen carbonate buffer and digested with 500 ng trypsin (Sigma) overnight. The SDC and SLS were removed by adding 100% acetyl acetate in a ratio 1:1 (vol/vol) sample to acetyl acetate volume ratio. Samples were acidified with 10% trifluoroacetic acid to pH ~3, and desalted by a custom-made stage tip with a styrene divinyl benzene (SDB-XC) membrane (3 M). The dried peptides were resuspended in 30 μL of 0.3% formic acid (FA) with 3% acetonitrile (ACN), quantified by BCA assay (Thermo Fisher Scientific), and injected into an Easy-nLC 1000 (Thermo Fisher Scientific). Peptides were separated on a 45 cm in-house packed column (360 μm OD × 75 μm ID) containing C18 resin (2.2 μm, 100 Å, Michrom Bioresources) with a 30 cm column heater (Analytical Sales and Services) set at 60 °C. The mobile phase buffer consisted of 0.1% FA in ultra-pure water (buffer A) with an eluting buffer of 0.1% FA in 80% ACN (buffer B) run over a linear 65 min gradient of 5%-30% buffer B at a flow rate of 250 nL/min. The Easy-nLC 1000 was coupled online with a Velos Pro LTQ-Orbitrap mass spectrometer (Thermo Fisher Scientific). […] Search was performed with full tryptic digestion and allowed a maximum of two missed cleavages on the peptides analyzed from the sequence database. […]

Experiment [2] concerns CMT2. In words: Peptide affinity purification and mass spectrometry, CMT2. How it is done: as §1, §2
In experiment [3] the test system is EDM2. In words: Peptide affinity purification and mass spectrometry, EDM2. How it is done: as §1
(§3) For LC-MS/MS analysis, IP beads with captured proteins were lysed in 12 mM sodium deoxycholate (SDC)-sodium lauroyl sarcosinate (SLS): 100 mM Tris-HCl (pH 8.5), 12 mM SDC, and 12 mM SLS. Proteins were reduced and alkylated with 10 mM tris-(2-carboxyethyl) phosphine and 40 mM chloroacetamide at 95 °C for 5 min. The supernatant containing reduced and alkylated proteins was transferred into a new Eppendorf tube and diluted fivefold with 50 mM triethylammonium hydrogen carbonate buffer and digested with 500 ng trypsin (Sigma) overnight. The SDC and SLS were removed by adding 100% acetyl acetate in a ratio 1:1 (vol/vol) sample to acetyl acetate volume ratio. Samples were acidified with 10% trifluoroacetic acid to pH ~3, and desalted by a custom-made stage tip with a styrene divinyl benzene (SDB-XC) membrane (3 M). The dried peptides were resuspended in 30 μL of 0.3% formic acid (FA) with 3% acetonitrile (ACN), quantified by BCA assay (Thermo Fisher Scientific), and injected into an Easy-nLC 1000 (Thermo Fisher Scientific). Peptides were separated on a 45 cm in-house packed column (360 μm OD × 75 μm ID) containing C18 resin (2.2 μm, 100 Å, Michrom Bioresources) with a 30 cm column heater (Analytical Sales and Services) set at 60 °C. The mobile phase buffer consisted of 0.1% FA in ultra-pure water (buffer A) with an eluting buffer of 0.1% FA in 80% ACN (buffer B) run over a linear 65 min gradient of 5%-30% buffer B at a flow rate of 250 nL/min. The Easy-nLC 1000 was coupled online with a Velos Pro LTQ-Orbitrap mass spectrometer (Thermo Fisher Scientific). The mass spectrometer was operated in the data-dependent mode in which a full MS scan (from m/z 350–1500 with the resolution of 30,000 at 400 m/z) was followed by the 10 most intense ions being subjected to collision-induced dissociation (CID) fragmentation. […]

Experiment [4] relates to AGDP1. The experiment is described as follows: Peptide affinity purification and mass spectrometry, AGDP1. How it is done: as §1, §3

Regarding “H3(1-21): synthesized biotinylated H3(1-21) peptide, EMD Millipore”, the “presence in pull-down products” value in experiment [1], in experiment [2] and in experiment [3] was “not in H3 pull-down products” throughout. Further, the “identification from pull-down samples” value in experiment [4] is given as “not from the H3 pull-down samples”.
Turning to “H3(1-21)K9me1: synthesized biotinylated H3(1-21)K9me1 peptide, EMD Millipore”, the “presence in pull-down products” value in experiment [1], in experiment [2] and in experiment [3] was “present” each time. In experiment [4], the “identification from pull-down samples” value is recorded as “identified”.
Regarding “H3(1-21)K9me2: synthesized biotinylated H3(1-21)K9me2 peptide, EMD Millipore”, the “presence in pull-down products” value in experiment [1], in experiment [2] and in experiment [3] was “present” in each case. Moreover, in experiment [4], the “identification from pull-down samples” value is recorded as “identified”.
Take “H3(1-21)K9me3: synthesized biotinylated H3(1-21)K9me3 peptide, EMD Millipore”: the “presence in pull-down products” value in experiment [1], in experiment [2] and in experiment [3] was “present” throughout. Moreover, in experiment [4], the “identification from pull-down samples” value is “identified”.
